Results published in patent US6737383B1, “Herbicidal oxadiazolidines” (priority 1999, dated 2004).

Columns and labels:
[1] = tested on: soybean; assay: Test B pre/postemergence soybean; assay type: in vivo, Glycine max; details: for Soybean plant response rating: scale of 0 to 10 where 0 is no effect and 10 is complete control
Summary of the method: (§1)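 Response is a visual 0-to-10 score relative to untreated plants, where 0 means no effect and 10 means complete control, taken twelve to sixteen days after application. Treatments went onto soil at planting and onto foliage of 1- to 4-leaf plants, using a surfactant-containing non-phytotoxic solvent.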

[2] = tested on: wild oat; assay: Test B pre/postemergence wild oat; assay type: in vivo, Avena fatua; details: for Wild oats plant response rating: scale of 0 to 10 where 0 is no effect and 10 is complete control
Summary of the method: as §1

[3] = tested on: rice; assay: Test B flood test rice; assay type: in vivo, Oryza sativa
Summary of the method: (§2)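 Plants were grown to the 2-leaf stage before treatment with test chemical, then held in a greenhouse for twelve to sixteen days. Injury was visually rated against untreated controls on a 0–10 scale, where 0 is no effect and 10 is complete control.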

[4] = tested on: wheat; assay: Test B pre/postemergence wheat; assay type: in vivo, Triticum aestivum; details: for Wheat plant response rating: scale of 0 to 10 where 0 is no effect and 10 is complete control
Summary of the method: as §1

[5] = tested on: smallflower flatsedge; assay: Test B flood test smallflower flatsedge; assay type: in vivo, Cyperus difformis
Summary of the method: as §2

[6] = tested on: velvetleaf; assay: Test B pre/postemergence velvetleaf; assay type: in vivo, Abutilon theophrasti; details: for Velvetleaf plant response rating: scale of 0 to 10 where 0 is no effect and 10 is complete control
Summary of the method: as §1

[7] = tested on: morningglory; assay: Test B pre/postemergence morningglory; assay type: in vivo, Ipomoea hederacea; details: for Morningglory plant response rating: scale of 0 to 10 where 0 is no effect and 10 is complete control
Summary of the method: as §1

[8] = tested on: surinam grass; assay: Test B pre/postemergence surinam grass; assay type: in vivo, Brachiaria decumbens; details: for B. signalgrass plant response rating: scale of 0 to 10 where 0 is no effect and 10 is complete control
Summary of the method: as §1

[9] = tested on: rape; assay: Test B pre/postemergence rape; assay type: in vivo, Brassica napus; details: for Rape plant response rating: scale of 0 to 10 where 0 is no effect and 10 is complete control
Summary of the method: as §1

[10] = tested on: pigweed; assay: Test B pre/postemergence pigweed; assay type: in vivo, Amaranthus retroflexus; details: for Redroot pigweed plant response rating: scale of 0 to 10 where 0 is no effect and 10 is complete control
Summary of the method: as §1

[11] = tested on: bedstraw; assay: Test B pre/postemergence bedstraw; assay type: in vivo, Galium aparine; details: Postemergence
Summary of the method: as §1

[12] = tested on: corn; assay: Test B pre/postemergence corn; assay type: in vivo, Zea mays; details: for Corn plant response rating: scale of 0 to 10 where 0 is no effect and 10 is complete control
Summary of the method: as §1

[13] = tested on: cocklebur; assay: Test B pre/postemergence cocklebur; assay type: in vivo, Xanthium strumarium; details: for Cocklebur plant response rating: scale of 0 to 10 where 0 is no effect and 10 is complete control
Summary of the method: as §1

[14] = tested on: sugar beet; assay: Test B pre/postemergence sugar beet; assay type: in vivo, Beta vulgaris; details: for Sugarbeets plant response rating: scale of 0 to 10 where 0 is no effect and 10 is complete control
Summary of the method: as §1

[15] = tested on: giant foxtail; assay: Test B pre/postemergence giant foxtail; assay type: in vivo, Setaria faberii; details: for Giant foxtail plant response rating: scale of 0 to 10 where 0 is no effect and 10 is complete control
Summary of the method: as §1

[16] = tested on: blackgrass; assay: Test B pre/postemergence blackgrass; assay type: in vivo, Alopecurus myosuroides; details: for Blackgrass plant response rating: scale of 0 to 10 where 0 is no effect and 10 is complete control
Summary of the method: as §1

[17] = Postemergence, Rate 125 g/ha, scale 0 to 10, 0 is no effect, 10 is complete control
[18] = Postemergence, Rate 250 g/ha, scale 0 to 10, 0 is no effect, 10 is complete control
[19] = Preemergence, Rate 62 g/ha, scale 0 to 10 (0 no effect, 10 complete control)
[20] = Rate 500 g/ha, Postemergence, scale 0 to 10, 0 no effect, 10 complete control
[21] = Postemergence (flood test), Rate 125 g/ha, scale 0 to 10, 0 is no effect, 10 is complete control
[22] = Rate 62 g/ha, Postemergence (flood test species), scale of 0 to 10 where 0 is no effect and 10 is complete control
[23] = Rate 500 g/ha, listed under Postemergence (flood test species), scale 0 to 10, 0 no effect, 10 complete control
[24] = flood test species, listed under Postemergence, Rate 250 g/ha, scale 0 to 10, 0 is no effect, 10 is complete control

CC(C)N(C(=O)n1oc(=O)n(C2(C)CC2)c1=O)c1ccccc1 [Compound 360]
9: Corn plant response rating ([12]; Preemergence, Rate 500 g/ha) | Plant response rating, Blackgrass [16, 19] | Blackgrass plant response rating (0 to 10 scale) ([16]; Preemergence, Rate 125 g/ha) | Blackgrass plant response rating ([16]; Preemergence, Rate 250 g/ha)
8: Wheat plant response rating ([4]; Preemergence, Rate 500 g/ha) | Plant response rating, S. Flatsedge [5, 23] | Plant response rating, Giant foxtail [15, 17] | Plant response rating, Giant foxtail [15, 18] | Giant foxtail plant response rating ([15]; Rate 62 g/ha, Postemergence) | Plant response rating, Giant foxtail [15, 20]
7: Wheat plant response rating ([4]; Preemergence, Rate 250 g/ha) | Velvetleaf plant response rating ([6]; Preemergence, Rate 250 g/ha) | Velvetleaf plant response rating ([6]; Preemergence, Rate 500 g/ha) | Morningglory plant response rating ([7]; Preemergence, Rate 250 g/ha) | B. signalgrass plant response rating ([8]; Preemergence, Rate 250 g/ha) | B. signalgrass plant response rating ([8]; Preemergence, Rate 500 g/ha) | Plant response rating, B. signalgrass [8, 20] | Plant response rating, Corn [12, 20] | Sugarbeets plant response rating ([14]; Preemergence, Rate 500 g/ha) | Plant response rating, Sugarbeets [14, 20] | Plant response rating, Blackgrass [16, 20]
10: Wild oats plant response rating (0 to 10 scale) ([2]; Preemergence, Rate 125 g/ha) | Wild oats plant response rating ([2]; Preemergence, Rate 250 g/ha) | Wild oats plant response rating ([2]; Preemergence, Rate 500 g/ha) | Morningglory plant response rating ([7]; Preemergence, Rate 500 g/ha) | Redroot pigweed plant response rating ([10]; Preemergence, Rate 250 g/ha) | Redroot pigweed plant response rating ([10]; Preemergence, Rate 500 g/ha) | Plant response rating, Giant foxtail [15, 19] | Giant foxtail plant response rating (0 to 10 scale) ([15]; Preemergence, Rate 125 g/ha) | Giant foxtail plant response rating ([15]; Preemergence, Rate 250 g/ha) | Giant foxtail plant response rating ([15]; Preemergence, Rate 500 g/ha) | Blackgrass plant response rating ([16]; Preemergence, Rate 500 g/ha)
2: Plant response rating, Soybean [1, 17] | Plant response rating, Soybean [1, 18] | S. Flatsedge plant response rating [5, 22] | Plant response rating, Bedstraw ([11]; Rate 250 g/ha, scale 0 to 10, 0 is no effect, 10 is complete control) | Plant response rating, Corn [12, 17] | Corn plant response rating ([12]; Rate 62 g/ha, Postemergence) | Plant response rating, Sugarbeets [14, 18] | Plant response rating, Sugarbeets [14, 19]
4: Plant response rating, Wheat [4, 17] | Plant response rating, Wheat [4, 18] | Plant response rating, S. Flatsedge [5, 21] | Plant response rating, S. Flatsedge [5, 24] | Plant response rating, Velvetleaf [6, 20] | Plant response rating, Morningglory [7, 17] | Plant response rating, Morningglory [7, 18] | Morningglory plant response rating ([7]; Rate 62 g/ha, Postemergence) | Plant response rating, Bedstraw ([11]; Rate 500 g/ha, scale 0 to 10, 0 no effect, 10 complete control) | Corn plant response rating ([12]; Preemergence, Rate 250 g/ha)
0: Plant response rating, Soybean [1, 19] | Soybean plant response rating (0 to 10 scale) ([1]; Preemergence, Rate 125 g/ha) | Soybean plant response rating ([1]; Preemergence, Rate 250 g/ha) | Plant response rating, Rice [3, 21] | Rice plant response rating [3, 22] | Plant response rating, Velvetleaf [6, 17] | Plant response rating, Velvetleaf [6, 18] | Velvetleaf plant response rating ([6]; Rate 62 g/ha, Postemergence) | Plant response rating, Morningglory [7, 19] | Plant response rating, B. signalgrass [8, 17] | B. signalgrass plant response rating ([8]; Rate 62 g/ha, Postemergence) | Plant response rating, Rape [9, 17] | Plant response rating, Rape [9, 18] | Plant response rating, Rape [9, 19] | Rape plant response rating (0 to 10 scale) ([9]; Preemergence, Rate 125 g/ha) | Rape plant response rating ([9]; Preemergence, Rate 250 g/ha) | Rape plant response rating ([9]; Preemergence, Rate 500 g/ha) | Rape plant response rating ([9]; Rate 62 g/ha, Postemergence) | Plant response rating, Rape [9, 20] | Plant response rating, Redroot pigweed [10, 17] | Redroot pigweed plant response rating ([10]; Rate 62 g/ha, Postemergence) | Plant response rating, Bedstraw ([11]; Rate 125 g/ha, scale 0 to 10, 0 is no effect, 10 is complete control) | Bedstraw plant response rating ([11]; Rate 62 g/ha, scale of 0 to 10 where 0 is no effect and 10 is complete control) | Plant response rating, Corn [12, 19] | Plant response rating, Cocklebur [13, 17] | Plant response rating, Cocklebur [13, 18] | Plant response rating, Cocklebur [13, 19] | Cocklebur plant response rating (0 to 10 scale) ([13]; Preemergence, Rate 125 g/ha) | Cocklebur plant response rating ([13]; Preemergence, Rate 500 g/ha) | Cocklebur plant response rating ([13]; Rate 62 g/ha, Postemergence) | Plant response rating, Cocklebur [13, 20] | Plant response rating, Sugarbeets [14, 17] | Sugarbeets plant response rating ([14]; Rate 62 g/ha, Postemergence)
6: Wheat plant response rating (0 to 10 scale) ([4]; Preemergence, Rate 125 g/ha) | Plant response rating, Wheat [4, 20] | Velvetleaf plant response rating (0 to 10 scale) ([6]; Preemergence, Rate 125 g/ha) | B. signalgrass plant response rating (0 to 10 scale, 0 is no effect, 10 is complete control) ([8]; Preemergence, Rate 125 g/ha) | Plant response rating, Redroot pigweed [10, 20] | Plant response rating, Corn [12, 18] | Sugarbeets plant response rating (0 to 10 scale) ([14]; Preemergence, Rate 125 g/ha) | Sugarbeets plant response rating ([14]; Preemergence, Rate 250 g/ha) | Plant response rating, Blackgrass [16, 18]
1: Soybean plant response rating ([1]; Rate 62 g/ha, Postemergence)
5: Soybean plant response rating ([1]; Preemergence, Rate 500 g/ha) | Plant response rating, Wild oats [2, 20] | Morningglory plant response rating (0 to 10 scale) ([7]; Preemergence, Rate 125 g/ha) | Plant response rating, Morningglory [7, 20] | Plant response rating, B. signalgrass [8, 18] | Plant response rating, B. signalgrass [8, 19] | Plant response rating, Redroot pigweed [10, 19] | Redroot pigweed plant response rating (0 to 10 scale) ([10]; Preemergence, Rate 125 g/ha) | Plant response rating, Blackgrass [16, 17] | Blackgrass plant response rating ([16]; Rate 62 g/ha, Postemergence)
3: Plant response rating, Soybean [1, 20] | Plant response rating, Wild oats [2, 17] | Plant response rating, Wild oats [2, 18] | Plant response rating, Wild oats [2, 19] | Wild oats plant response rating ([2]; Rate 62 g/ha, Postemergence) | Plant response rating, Rice [3, 23] | Plant response rating, Rice [3, 24] | Plant response rating, Wheat [4, 19] | Wheat plant response rating ([4]; Rate 62 g/ha, Postemergence) | Plant response rating, Velvetleaf [6, 19] | Plant response rating, Redroot pigweed [10, 18] | Corn plant response rating (0 to 10 scale) ([12]; Preemergence, Rate 125 g/ha)
